{"source": "patent US8609403B2", "about": "“Polynucleotide derived from novel hepatitis C virus strain and use thereof” (Tokyo Metropolitan Institute of Medical Science, priority 2009, dated 2013)"}
{"system": "HCV-RMT strain", "test": "Evaluation of anti-HCV agents in Huh7 cells maintaining the RMT recombinant virus (triple mutation), HCV amount by real-time PCR", "assay_type": "cell-based, hepatitis C virus", "settings": "Huh7 cells 10 days after introduction of RMT-tri genome; agent added 16 hours after plating, total RNA purified 48 hours later; FIG. 8", "method": "E1202G or the 3 acclimation mutations (E1202G, E1056V and A2199T) was/were introduced to pRMTx, and the obtained vectors were designated pRMTx-E1202G and pRMTx-tri, respectively. From pRMTx, pRMTx-E1202G and pRMTx-tri, viral genomic RNAs were prepared (RMT, RMT-E1202G and RMT-tri, respectively), and 30 μg each of the prepared genomic RNAs were introduced to Huh7 cells by electroporation. The cells were plated on a culture dish and subcultured 3 to 4 times per week, during which the cell were sampled. From the sampled cells, total RNA was purified by the AGPC method, and the copy number of the HCV genome per 1 μg of the total RNA was quantified according to a conventional method (Takeuchi et al., Gastroenterology, 1999) by reverse transcription real-time PCR using QuantiTect Multiplex PCR kit (manufactured by Qiagen). Daily changes in the copy number of the HCV genome in the cells to which RMT-RNA, RMT-E1202G-RNA and RMT-tri-RNA were respectively introduced are shown in FIG. 7.\nFurther, 10 days after the introduction of the genome, the cells in the state where the HCV genome was maintained were plated on a 96-well plate, and an agent was added thereto 16 hours later, followed by purification of total RNA 48 hours later from each well using ABI prizm 6100 and a purification kit (manufactured by Applied Biosystems). The HCV amount in the RNA, which was obtained by the above real-time PCR, and the total RNA amount quantified using an absorption spectrophotometer are shown in FIG. 8. As anti-HCV agents, an HCV polymerase inhibitor (MK0608), HCV protease inhibitor (BILN2061), IFN-α and cyclophilin inhibitor (cyclosporin A) were used."}
{"compound": "COc1ccc2c(O[C@@H]3C[C@H]4C(=O)N[C@]5(C(=O)O)C[C@H]5/C=C\\CCCCC[C@H](NC(=O)OC5CCCC5)C(=O)N4C3)cc(-c3csc(NC(C)C)n3)nc2c1", "note": "[BILN2061]", "growth inhibition capacities against HCV": "almost the same as those described in documents"}
{"compound": "C[C@@]1(O)[C@H](O)[C@@H](CO)O[C@H]1n1ccc2c(N)ncnc21", "note": "[MK0608]", "growth inhibition capacities against HCV": "almost the same as those described in documents"}
{"compound": "IFN-α", "growth inhibition capacities against HCV": "almost the same as those described in documents"}
